Assay [1] has as its system Pseudomonas aeruginosa (ATCC #15692, PaO1). Kind of assay: Bacteriostatic effect on planktonic cultures with different bacterial inoculum sizes in SWF. Type of assay: cell-based. The following applies: 3 mM deferiprone in SWF. As for the experimental part: An evaluation of possible bacteriostatic effect of deferiprone (3 mM) on the gram-negative bacterium Pseudomonas aeruginosa (ATCC #15692, PaO1) and effect of bacterial start concentrations was performed. Deferiprone (3 mM) was dissolved into Simulated Wound Fluid (SWF) (fetal bovine serum (FBS) and Peptone Water (PW) mixed in equal proportions, which correspond to the protein and electrolyte concentration of wound exudates (Emiko Aiba-Kojima, MD et.al Wound Rep Reg (2007) 15 511-520; Trengove, N et al Wound Rep Reg (1996) 4 1067-1927)). Bacterial concentrations ranging from 10−1×10^8 CFU/ml were inoculated into different test tubes +/− Deferiprone (3 mM) in SWF and incubated at 35° C. for 24 hrs before bacterial numbers were determined using petrifilm.

Assay [2] has the same test system. Kind of assay: Bacterial growth in wells of Calgary biofilm device (petrifilm). Type of assay: cell-based. Particulars: inoculum 1×10^6 CFU/ml, 24, 48, 72 hrs. As for the experimental part:
(§1) An evaluation of possible bacteriostatic effect of deferiprone (3-6 mM) on the gram-negative bacterium Pseudomonas aeruginosa (ATCC #15692, PaO1) and connection to ability to form biofilm on a plastic surface, using the Calgary biofilm device (CBD) (Journal of Clinical Microbiology, June 1999, p. 1771-1776) was performed. This method utilizes 96-well microplates with lids containing 96 plastic cone shaped protrusions that extend into the wells of the plate. By submerging the plastic cones into bacterial solution, biofilm attachment to the pegs can be studied. Different concentrations of Deferiprone (0, 0.37, 0.75, 1.5, 3, 6 mM) were dissolved in Simulated Wound Fluid (SWF) and added to wells in the CBD plate. PaO1 was then inoculated at a total bacterial concentration of 1×10^6 CFU/ml and the lid was placed on the plate. Following incubation at 35° C. for 24, 48, 72 hrs, bacterial concentration from the wells were calculated using petrifilm and the plastic protrusions were analyzed for biofilm attachment using a luminescence kit that quantifies bacterial viability (Promega BacTiter-GLO).

For assay [3] the test system is unchanged. Kind of assay: Biofilm attachment to pegs of Calgary biofilm device (Promega BacTiter-GLO luminescence). Type of assay: cell-based. As for the experimental part:
as §1

For assay [4], the system named is PaO1 in a biofilm phenotype. Description: Bacteriostatic effect in collagen (wound-like matrix) gels, bacteria in biofilm phenotype. The assay is classed as cell-based, Pseudomonas aeruginosa. The following applies: 3 mM deferiprone, different start concentrations, 24 hrs at 35° C. How it is done:
Collagen gels were created and inoculated with 1×10^6 CFU/ml PaO1. Gels were incubated for 24 hrs at 35° C. in order to obtain bacteria in biofilm phenotype. New collagen gels +/−3 mM deferiprone were created and different bacterial start concentrations were inoculated into the gels. Following 24 hrs incubation at 35° C., the gels were solubilized and bacterial counts were measured using petrifilm.

Assay [5] relates to clinical wound isolates of Pseudomonas aeruginosa. Kind of assay: Effect on clinical wound isolates in SWF. The following applies: 3 mM deferiprone in SWF, 24 hrs at 35° C., all isolates tested. The assay is classed as cell-based. How it is done: Bacteriostatic effect of deferiprone was tested on different clinical wound isolates of Pseudomonas aeruginosa. Isolates were typed according to known virulence factors (FIG. 9a) and subjected for treatment +/−3 mM deferiprone in SWF for 24 hrs at 35° C. Bacterial start concentrations and concentrations after treatment were measured using petrifilm.

A further assay concerns Actinobacter baumannii. Description: Bacteriostatic effect on other gram-negative species in SWF. The following applies: 3 mM deferiprone in SWF, 24 hrs at 35° C. The assay is classed as cell-based. As for the experimental part: (§2) The bacteriostatic effect of deferiprone was tested on other gram negative species than Pseudomonas aeruginosa in order to see if the bacteriostatic effect of deferiprone extends to other gram negative species. The following bacteria were tested: Actinobacter baumannii, Echerschia coli, Klebsiella pneumoniae +/−3 mM deferiprone in SWF for 24 hrs at 35° C. Bacterial start concentrations and concentrations after treatment were measured using petrifilm.

Another assay deals with Echerschia coli. Described as above. The following applies: 3 mM deferiprone in SWF, 24 hrs at 35° C. The assay is classed as cell-based. As for the experimental part: as §2
Another assay concerns Klebsiella pneumoniae. The description is as above. The assay is classed as cell-based. The following applies: 3 mM deferiprone in SWF, 24 hrs at 35° C. As for the experimental part: as §2
Another assay relates to PaO1. Kind of assay: Growth of planktonic PaO1 at sub-bacteriostatic concentrations in SWF. The assay is classed as cell-based, Pseudomonas aeruginosa. Particulars: 1×10^6 CFU/ml, 72 hrs at 35° C.
The test system of assay [6] is virulence factor pyoverdine. Description: Pyoverdine levels in supernatants by LC-MS. Particulars: 0.03 and 0.3 mM deferiprone in SWF, 72 hrs at 35° C. Type of assay: cell-based, Pseudomonas aeruginosa. As for the experimental part: In order to evaluate if sub-bacteriostatic concentrations (<3 mM) of deferiprone have an effect on the virulence factor pyoverdine, supernatants of planktonically grown PaO1 (1×10^6 CFU/ml) +/− deferiprone at 0.3 and 0.03 mM in SWF were analyzed by LC-MS for pyoverdine after 72 hrs at 35° C.

Take `Cc1c(O)c(=O)ccn1C` [deferiprone]: the “bacterial concentration after 24 hrs” value in assay [1] (35° C., 24 hrs) is given as “equals the bacterial start concentration”. Besides, the “effect on growth of PaO1 in planktonic cultures” value in [1] (35° C., 24 hrs, different start inoculums) was “true bacteriostatic effect”. The “toxicity to PaO1” value in [1] (different start inoculums) is given as “non-toxic”. Further, the “effect on growth of PaO1 in CBD wells” value in assay [2] (3 mM deferiprone in SWF) and in assay [2] (6 mM deferiprone in SWF) was “bacteriostatic” in each case. Further, the “biofilm formation on pegs of CBD plate” value in [3] (3 mM deferiprone in SWF, 24, 48, 72 hrs) is “No biofilm was formed”; in assay [3] (6 mM deferiprone in SWF, 24, 48, 72 hrs) it was “No biofilm was formed”. For the same compound, in assay [3] (all other concentrations (0.37, 0.75, 1.5 mM) of deferiprone in SWF), the “biofilm formation on pegs of CBD plate (read-out signal)” value is “full growth”. Also, in [4], the “effect on growth of PaO1 in collagen gel” value is given as “a bacteriostatic effect is observed”. Besides, in [5], the “effect on growth of clinical wound isolates” value is recorded as “bacteriostatic effects”. Further, the “effect on growth of Actinobacter baumannii” value with Actinobacter baumannii is reported as “sensitive”. The “effect on growth of Echerschia coli” value in the assay with Echerschia coli was “same bacteriostatic effects”. The “effect on growth of Klebsiella pneumoniae” value in the assay with Klebsiella pneumoniae was “sensitive”. The “effect on growth characteristics of PaO1” value in the assay with PaO1 (0.03 mM deferiprone in SWF) and in the assay with PaO1 (0.3 mM deferiprone in SWF) was “does not affect growth characteristics” in each case. Moreover, in [6], the “pyoverdine levels in supernatants” value is “dose-dependent decrease”.

(Values after patent US20240157017A1, “A MEDICAL DRESSING COMPRISING A BACTERIOSTATIC COMPOSITION” (Mölnlycke Health Care AB, priority 2021, published 2024).)
